Assay results as given in the supplement of paper PMC10307832.

Tests used:
Assay in all cases: relative viability (nuclei count vs DMSO), 5 days (fraction); higher = more cells survive
NCI-H1975 = test system: NCI-H1975
In short: (§1)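 Medians of duplicate plates are given as relative viability. That measure is the nuclei count in treated wells divided by the count in vehicle wells. Counts were taken on 4× images of lung cancer cell lines in 1536-well plates, 5 days after pin-tool dosing the day after seeding with one drug alone or a fixed anchor-drug dose plus five library-drug doses (not always all listed) in √10 steps.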

LCLC-103H = test system: LCLC-103H
In short: as §1

NCI-H727 = test system: NCI-H727
In short: as §1

UMC-11 = test system: UMC-11
In short: as §1

EPLC-272H = test system: EPLC-272H
In short: as §1

NCI-H1437 = test system: NCI-H1437
In short: as §1

NCI-H358 = test system: NCI-H358
In short: as §1

HCC-366 = test system: HCC-366
In short: as §1

NCI-H1944 = test system: NCI-H1944
In short: as §1

NCI-H2023 = test system: NCI-H2023
In short: as §1

HARA = test system: HARA
In short: as §1

HCC-78 = test system: HCC-78
In short: as §1

NCI-H2405 = test system: NCI-H2405
In short: as §1

NCI-H1395 = test system: NCI-H1395
In short: as §1

HCC-827 = test system: HCC-827
In short: as §1

COR-L23 = test system: COR-L23
In short: as §1

COR-L 105 = test system: COR-L 105
In short: as §1

NCI-H2085 = test system: NCI-H2085
In short: as §1

SK-LU-1 = test system: SK-LU-1
In short: as §1

NCI-H661 = test system: NCI-H661
In short: as §1

HCC-15 = test system: HCC-15
In short: as §1

Question: What does the source list for O=C(O)CCCCC(CCSCc1ccccc1)SCc1ccccc1 (stereo not drawn) [CPI-613] + COc1cc2c(Oc3ccc(NC(=O)C4(C(=O)Nc5ccc(F)cc5)CC4)cc3F)ccnc2cc1OCCCN1CCOCC1 [Foretinib] (partner 0.25 µM)?
Answer: relative viability (NCI-H1975; first compound 5 µM): 0.943; relative viability (NCI-H1975; first compound 15.81 µM): 0.964; relative viability (NCI-H1975; first compound 50 µM): 0.963; relative viability (NCI-H1975; first compound 158.11 µM): 0.713; relative viability (NCI-H1975; first compound 500 µM): 0.151; relative viability (LCLC-103H; first compound 5 µM): 0.744; relative viability (LCLC-103H; first compound 15.81 µM): 0.757; relative viability (LCLC-103H; first compound 50 µM): 0.805; relative viability (LCLC-103H; first compound 158.11 µM): 0.174; relative viability (LCLC-103H; first compound 500 µM): 0.243; relative viability (NCI-H727; first compound 5 µM): 0.854; relative viability (NCI-H727; first compound 15.81 µM): 1.39; relative viability (NCI-H727; first compound 50 µM): 0.865; relative viability (NCI-H727; first compound 158.11 µM): 0.572; relative viability (NCI-H727; first compound 500 µM): 0.47; relative viability (UMC-11; first compound 5 µM): 0.992; relative viability (UMC-11; first compound 15.81 µM): 1.04; relative viability (UMC-11; first compound 50 µM): 0.995; relative viability (UMC-11; first compound 158.11 µM): 0.169; relative viability (UMC-11; first compound 500 µM): 0.131; relative viability (EPLC-272H; first compound 5 µM): 0.613; relative viability (EPLC-272H; first compound 15.81 µM): 0.597; relative viability (EPLC-272H; first compound 50 µM): 0.69; relative viability (EPLC-272H; first compound 158.11 µM): 0.158; relative viability (EPLC-272H; first compound 500 µM): 0.0081; relative viability (NCI-H1437; first compound 5 µM): 1.22; relative viability (NCI-H1437; first compound 15.81 µM): 1.23; relative viability (NCI-H1437; first compound 50 µM): 1.29; relative viability (NCI-H1437; first compound 158.11 µM): 0.426; relative viability (NCI-H1437; first compound 500 µM): 0.0461; relative viability (NCI-H358; first compound 15.81 µM): 0.648; relative viability (NCI-H358; first compound 50 µM): 0.713; relative viability (NCI-H358; first compound 158.11 µM): 0.369; relative viability (NCI-H358; first compound 500 µM): 0.0356; relative viability (HCC-366; first compound 5 µM): 0.963; relative viability (HCC-366; first compound 15.81 µM): 0.962; relative viability (HCC-366; first compound 50 µM): 0.989; relative viability (HCC-366; first compound 158.11 µM): 0.322; relative viability (HCC-366; first compound 500 µM): 0.0079; relative viability (NCI-H1944; first compound 5 µM): 0.923; relative viability (NCI-H1944; first compound 15.81 µM): 0.878; relative viability (NCI-H1944; first compound 50 µM): 0.967; relative viability (NCI-H1944; first compound 158.11 µM): 0.649; relative viability (NCI-H1944; first compound 500 µM): 0.0567; relative viability (NCI-H2023; first compound 5 µM): 0.704; relative viability (NCI-H2023; first compound 15.81 µM): 0.719; relative viability (NCI-H2023; first compound 50 µM): 0.875; relative viability (NCI-H2023; first compound 158.11 µM): 0.0718; relative viability (NCI-H2023; first compound 500 µM): 0.0092; relative viability (HARA; first compound 15.81 µM): 0.778; relative viability (HARA; first compound 50 µM): 0.923; relative viability (HARA; first compound 158.11 µM): 0.51; relative viability (HARA; first compound 500 µM): 0.0068; relative viability (HCC-78; first compound 5 µM): 0.497; relative viability (HCC-78; first compound 15.81 µM): 0.554; relative viability (HCC-78; first compound 50 µM): 0.545; relative viability (HCC-78; first compound 158.11 µM): 0.52; relative viability (HCC-78; first compound 500 µM): 0.473; relative viability (NCI-H2405; first compound 5 µM): 1.08; relative viability (NCI-H2405; first compound 15.81 µM): 1.03; relative viability (NCI-H2405; first compound 50 µM): 0.995; relative viability (NCI-H2405; first compound 158.11 µM): 0.93; relative viability (NCI-H2405; first compound 500 µM): 0.876; relative viability (NCI-H1395; first compound 5 µM): 0.973; relative viability (NCI-H1395; first compound 15.81 µM): 0.971; relative viability (NCI-H1395; first compound 50 µM): 0.916; relative viability (NCI-H1395; first compound 158.11 µM): 0.94; relative viability (NCI-H1395; first compound 500 µM): 0.961; relative viability (HCC-827; first compound 5 µM): 1.04; relative viability (HCC-827; first compound 15.81 µM): 1.02; relative viability (HCC-827; first compound 50 µM): 1; relative viability (HCC-827; first compound 158.11 µM): 0.416; relative viability (HCC-827; first compound 500 µM): 0.312; relative viability (COR-L23; first compound 5 µM): 0.983; relative viability (COR-L23; first compound 15.81 µM): 0.995; relative viability (COR-L23; first compound 50 µM): 0.714; relative viability (COR-L23; first compound 158.11 µM): 0.614; relative viability (COR-L23; first compound 500 µM): 0.0368; relative viability (COR-L 105; first compound 5 µM): 1.11; relative viability (COR-L 105; first compound 15.81 µM): 1.03; relative viability (COR-L 105; first compound 50 µM): 1.02; relative viability (COR-L 105; first compound 158.11 µM): 0.508; relative viability (COR-L 105; first compound 500 µM): 0.16; relative viability (NCI-H2085; first compound 5 µM): 0.767; relative viability (NCI-H2085; first compound 15.81 µM): 0.927; relative viability (NCI-H2085; first compound 50 µM): 0.933; relative viability (NCI-H2085; first compound 158.11 µM): 0.286; relative viability (NCI-H2085; first compound 500 µM): 0.0979; relative viability (SK-LU-1; first compound 5 µM): 0.875; relative viability (SK-LU-1; first compound 15.81 µM): 0.754; relative viability (SK-LU-1; first compound 50 µM): 0.626; relative viability (SK-LU-1; first compound 158.11 µM): 0.282; relative viability (SK-LU-1; first compound 500 µM): 0.092; relative viability (NCI-H661; first compound 5 µM): 0.982; relative viability (NCI-H661; first compound 15.81 µM): 1.06; relative viability (NCI-H661; first compound 50 µM): 0.841; relative viability (NCI-H661; first compound 158.11 µM): 0.371; relative viability (NCI-H661; first compound 500 µM): 0.142; relative viability (HCC-15; first compound 5 µM): 0.974; relative viability (HCC-15; first compound 15.81 µM): 1; relative viability (HCC-15; first compound 50 µM): 1.01; relative viability (HCC-15; first compound 158.11 µM): 0.236; relative viability (HCC-15; first compound 500 µM): 0.039
